According to EP2524918A1, “Imidazopyrazines derivates as kinase inhibitors” (Centro Nacional de Investigaciones Oncológicas (CNIO), priority 2011, dated 2012):

Key:
[1] = biological target: T1, PI3K (p110α/p85α (Homo sapiens, UniProt P42336)); experiment: PI3K activity assay (ADP Hunter Plus); assay type: biochemical; conditions: 50 µM ATP, 30 µM PIP2, 1 hour at 25°C; read-out: PI3Kα IC50
T1 construct: purchased Carna Biosciences #07CBS-0402A
Protocol: The kinase activity was measured by using the commercial ADP Hunter™ Plus assay available from DiscoveRx (#33-016), which is a homogeneous assay to measure the accumulation of ADP, a universal product of kinase activity. […] Reaction was carried out for 1 hour at 25°C. Reagent A and B were sequentially added to the wells and plates were incubated for 30 min at 37 °C. Fluorescence counts were read in a Victor instrument (Perkin Elmer) with the recommended settings (544 and 580 nm as excitation and emission wavelengths, respectively). Values were normalized against the control activity included for each enzyme (i.e., 100 % PI3 kinase activity, without compound). These values were plot against the inhibitor concentration and were fit to a sigmoid dose-response curve by using the Graphad software.

[2] = test system: HDAC; experiment: HDAC enzymatic activity (HDAC-Glo I/II Screening System, HeLa cell nuclear extracts); assay type: biochemical; conditions: HeLa cell nuclear extract, 25°C for 30 minutes
Protocol: HDAC inhibitory activity was evaluated using the HDAC-Glo™ I/II Screening System from Promega (G6430) using manufacturing recommendations. The system emploies HeLa cell nuclear extracts as a source of HDAC activities. The assay uses an acetylated, live-cell-permeant, luminogenic peptide substrate that can be deacetylated by HDAC activities. Substrate deacetylation is measured by a coupled protease reaction that cleaves the peptide from aminoluciferin, which is quantified in a reaction using recombinant Ultra-Glo™ firefly luciferase. Test compounds were serially diluted in dimethylsulphoside (DMSO) and added to HeLa cell nuclear extract in the presence of the acetylated luminogenic peptide substrate and developer reagent. Reactions were incubated at 25°C for 30 minutes and luminescence was measured in the EnVision plate reader (Perkin Elmer). Data were analyzed using GraphPad Prism (v5.03) with a sigmoidal dose-response curve fitting for IC50 calculation.

[3] = test system: phospho-Akt1 (Ser473) protein; experiment: PI3K cellular activity (Elisa assay), AKT phosphorylation in SKMEL cells; assay type: cell-based; conditions: inhibition of phosphorylation of AKT, read-out: AKT_P_SKMEL_ELISA_EC50
[4] = test system: PC3; experiment: Antiproliferation MTT assay, PC3; assay type: cell-based; conditions: Homo sapiens, PC-3; Prostate
Protocol: (§1) Cells were seeded at 10000-50000 cells/well in 96 plates for 16 h. On day two, nine serial 1:3 compound dilutions were made in DMSO in a 96 well plate. The compounds were added to duplicate wells in 96-well cell plates a using a FX BECKMAN robot (Beckman Coulter) and incubated at 37°C with CO2 atmosphere. After 3 days, relative numbers of viable cells were measured by MTT (Sigma) according to manufacturer's instruction and read on EndVision (Perkin Elmer). EC50 values were calculated using ActivityBase from IDBS. Drugs in combination assays were dosed starting at 4 x EC50 concentrations and continuing with serial dilutions 1:2. PI3K inhibitors and chemotherapeutic agents were added simultaneously.
(§2) An additional exemplary in vitro cell proliferation assay includes the following steps: • 1. An aliquot of 200 µl of cell culture containing optimal density (between 10^4 - 5x10^4 cells) (see Examples for cell lines and tumour type) in medium was deposited in each well of a 96-well flat bottom plates. • 2. Control wells were prepared containing medium without cells • 3. The compound was added to the experimental wells and incubated for 3 days. • 4. […] Formazan salt formed was recorded and reported in graphs as relative growth vs. cells treated only with dmso.

[5] = test system: MV4:11; experiment: Antiproliferation assay, MV4:11; assay type: cell-based; conditions: Homo sapiens, AML, read-out: MMP MV4:11 IC50
Protocol: as §1
(§3) An additional exemplary in vitro cell proliferation assay includes the following steps: • 1. An aliquot of 200 µl of cell culture containing optimal density (between 10^4 - 5x10^4 cells) (see Examples for cell lines and tumour type) in medium was deposited in each well of a 96-well flat bottom plates. • 2. Control wells were prepared containing medium without cells • 3. The compound was added to the experimental wells and incubated for 3 days. • 4. One quarter volume of MTT reagent with respect to the volume of cell culture medium present in each well was added and incubated 24h at 37°C with 5% CO2. • 5. One quarter volume of solubilisation buffer with respect to the volume of cell culture medium present in each well was added and incubated 24h at 37°C with 5% CO2. • 6. Formazan salt formed was recorded and reported in graphs as relative growth vs. cells treated only with dmso.

[6] = test system: HCT 116p53 ++; experiment: Antiproliferation MTT assay, HCT 116; assay type: cell-based; conditions: Homo sapiens, HCT-116, Colon Cancer
Protocol: as §1, §3

[7] = test system: COLO206; experiment: Antiproliferation MTT assay, COLO206; assay type: cell-based; conditions: Colon Cancer
Protocol: as §1, §3

[8] = test system: HT39; experiment: Antiproliferation MTT assay, HT39; assay type: cell-based; conditions: Colon Cancer
Protocol: as §1, §3

[9] = test system: A549; experiment: Antiproliferation MTT assay, A549; assay type: cell-based; conditions: Homo sapiens, A549, Lung Cancer
Protocol: as §1, §3

[10] = test system: NCI H23; experiment: Antiproliferation MTT assay, NCI H23; assay type: cell-based; conditions: Homo sapiens, Lung Cancer
Protocol: as §1, §3

[11] = test system: NCI H1975; experiment: Antiproliferation MTT assay, NCI H1975; assay type: cell-based; conditions: Homo sapiens, Lung Cancer
Protocol: as §1, §3

[12] = test system: SKMEL19; experiment: Antiproliferation MTT assay, SKMEL19; assay type: cell-based; conditions: Homo sapiens, SK-MEL19, Melanoma
Protocol: as §1, §3

[13] = test system: SKMel29; experiment: Antiproliferation MTT assay, SKMel29; assay type: cell-based; conditions: Melanoma
Protocol: as §1, §3

[14] = test system: U2OS; experiment: Antiproliferation MTT assay, U2OS; assay type: cell-based; conditions: Homo sapiens, Osteosar coma
Protocol: as §1, §3

[15] = test system: MDAMB 231; experiment: Antiproliferation MTT assay, MDAMB 231; assay type: cell-based; conditions: Homo sapiens, MDA-MB-231; Breast cancer
Protocol: as §1, §3

[16] = test system: BT474; experiment: Antiproliferation MTT assay, BT474; assay type: cell-based; conditions: Homo sapiens, BT-474; Breast cancer
Protocol: as §1, §3

[17] = test system: Raji; experiment: Antiproliferation MTT assay, Raji; assay type: cell-based; conditions: Homo sapiens, Burkitt Lymphoma
Protocol: as §1, §3

[18] = test system: Miapaca; experiment: Antiproliferation MTT assay, Miapaca; assay type: cell-based; conditions: Homo sapiens, MIA PaCa-2; Pancreas
Protocol: as §1, §3

[19] = test system: phospho-Akt1 (Ser473) protein; experiment: PI3K cellular activity (Elisa assay), AKT phosphorylation in U2OS cells; assay type: cell-based; conditions: Homo sapiens, U20S cells, inhibition of phosphorylation of AKT, 3h treatment, read-out: AKT_P_U20S_ELISA_EC50
Protocol: Activity is measured as endogenous levels of phospho-Akt1 (Ser473) protein. Osteosarcoma U2OS cells are plated in 96 Poly-D-Lysine coating tissue culture plates (18.000 cells/well). After the treatment with serial dilutions of the compound during 3h, the cells are fixed directly in the wells with 4% paraformaldehyde.
After fixing, individual wells go through the same series of steps used for a conventional immunoblot: including blocking with 5% BSA, incubation with 1/1000 of primary antibody-AKT ([…]) in PBS containing 5% BSA at 4°C overnight (Cell Signalling), washing and incubation with second antibody HRP-anti-mouse IgG for 1 h at RT (Amersham). After the addition of SuperSignal ELISA Femto maximum sensitivity chemiluminescent substrate (Pierce) the results are read using a luminescence plate reader (Victor).

[20] = test system: SW620; experiment: Antiproliferation MTT assay, SW620; assay type: cell-based; conditions: Homo sapiens, SW-620; Colon Cancer
Protocol: as §1, §2

[21] = test system: NCI H460; experiment: Antiproliferation MTT assay, NCI H460; assay type: cell-based; conditions: Homo sapiens, Lung Cancer
Protocol: as §1, §2

[22] = test system: MCF7; experiment: Antiproliferation MTT assay, MCF7; assay type: cell-based; conditions: Homo sapiens, Breast cancer
Protocol: as §1, §2

[23] = first of two columns with the same head (c3)
[24] = first of two columns with the same head (c1)
[25] = second of two columns with the same head (c2)

T1 sequence (P42336 whole entry): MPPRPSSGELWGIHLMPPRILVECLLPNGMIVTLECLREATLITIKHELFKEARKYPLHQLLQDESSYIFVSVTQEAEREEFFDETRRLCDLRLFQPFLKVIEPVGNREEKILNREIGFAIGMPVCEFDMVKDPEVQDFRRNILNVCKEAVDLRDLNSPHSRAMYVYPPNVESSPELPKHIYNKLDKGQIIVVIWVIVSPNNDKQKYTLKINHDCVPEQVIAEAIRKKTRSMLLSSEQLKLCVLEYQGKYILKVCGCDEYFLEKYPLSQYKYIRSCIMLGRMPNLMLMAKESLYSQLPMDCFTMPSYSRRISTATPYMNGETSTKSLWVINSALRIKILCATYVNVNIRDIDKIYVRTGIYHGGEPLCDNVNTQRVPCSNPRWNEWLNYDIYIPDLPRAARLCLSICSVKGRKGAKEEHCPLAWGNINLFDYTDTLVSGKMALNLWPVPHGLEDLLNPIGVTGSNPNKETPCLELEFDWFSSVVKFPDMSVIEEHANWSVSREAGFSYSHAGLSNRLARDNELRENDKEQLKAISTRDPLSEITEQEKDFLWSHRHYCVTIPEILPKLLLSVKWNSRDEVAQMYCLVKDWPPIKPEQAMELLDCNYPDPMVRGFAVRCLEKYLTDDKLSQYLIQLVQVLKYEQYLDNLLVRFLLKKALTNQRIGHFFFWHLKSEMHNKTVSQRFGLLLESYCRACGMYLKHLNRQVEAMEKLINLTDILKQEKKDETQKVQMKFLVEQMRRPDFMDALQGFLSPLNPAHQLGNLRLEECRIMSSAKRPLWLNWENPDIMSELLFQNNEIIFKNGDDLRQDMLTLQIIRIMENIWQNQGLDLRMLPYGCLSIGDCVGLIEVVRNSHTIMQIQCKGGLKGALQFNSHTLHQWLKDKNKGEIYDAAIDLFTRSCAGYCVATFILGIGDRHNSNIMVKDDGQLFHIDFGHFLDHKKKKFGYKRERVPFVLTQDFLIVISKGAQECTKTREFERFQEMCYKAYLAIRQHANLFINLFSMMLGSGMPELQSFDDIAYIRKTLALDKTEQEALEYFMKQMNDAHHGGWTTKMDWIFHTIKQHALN
T1 sequence (P27986 whole entry partner): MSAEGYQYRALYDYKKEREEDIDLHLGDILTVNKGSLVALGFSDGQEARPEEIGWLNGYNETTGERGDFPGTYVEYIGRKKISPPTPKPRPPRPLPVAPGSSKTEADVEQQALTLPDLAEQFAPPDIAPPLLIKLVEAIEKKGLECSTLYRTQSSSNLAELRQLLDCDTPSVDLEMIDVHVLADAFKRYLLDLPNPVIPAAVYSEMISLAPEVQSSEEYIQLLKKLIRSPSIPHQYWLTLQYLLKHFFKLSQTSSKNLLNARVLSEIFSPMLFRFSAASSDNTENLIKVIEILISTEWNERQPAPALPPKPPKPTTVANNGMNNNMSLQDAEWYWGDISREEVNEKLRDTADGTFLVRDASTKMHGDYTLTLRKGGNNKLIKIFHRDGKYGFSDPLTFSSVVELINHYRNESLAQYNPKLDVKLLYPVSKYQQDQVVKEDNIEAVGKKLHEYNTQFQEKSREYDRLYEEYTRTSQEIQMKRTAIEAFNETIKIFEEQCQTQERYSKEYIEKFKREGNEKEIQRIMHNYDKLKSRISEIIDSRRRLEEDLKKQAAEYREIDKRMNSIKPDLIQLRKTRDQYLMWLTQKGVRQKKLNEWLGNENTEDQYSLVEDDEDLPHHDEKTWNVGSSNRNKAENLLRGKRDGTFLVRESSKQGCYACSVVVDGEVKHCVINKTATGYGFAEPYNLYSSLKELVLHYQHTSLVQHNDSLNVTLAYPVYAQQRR

IC50 [1] [nM]	IC50 [2] [nM]	EC50 [3] [nM]	IC50 [4] [nM]	IC50 [5] [nM]	IC50 [6] [nM]	IC50 [6, 23] [nM]	IC50 [7] [nM]	IC50 [9, 24] [nM]	IC50 [12, 24] [nM]	IC50 [12, 25] [nM]	IC50 [13] [nM]	IC50 [14] [nM]	IC50 [15] [nM]	IC50 [16] [nM]	IC50 [17] [nM]	IC50 [18] [nM]	SMILES	IC50 [8] [nM]	IC50 [10] [nM]	IC50 [11] [nM]	other results
5.7	21.1	330	5760	1150	7770	6710	5940	50800	3300	2300	1330	5360	5730	500	2750	4320	Nc1ncc(-c2cn3cc(CNc4ncc(C(=O)NO)cn4)nc3c(N3CCOCC3)n2)cn1 [Final Compound 1]	34600	77900	14400	
3.2	9	70	1170	340	670	1160	560	3530	370	70	16	2110	560	94	280	630	Nc1ncc(-c2cn3cc(CN4CCN(c5ncc(C(=O)NO)cn5)CC4)nc3c(N3CCOCC3)n2)cn1 [Final Compound 2]	1210	2150	1050	EC50 [19]: 1360 nM; IC50 [20]: 1340 nM; IC50 [9, 25]: 1320 nM; IC50 [21]: 2390 nM; IC50 [22]: 540 nM
7.5	10.6	1940		40	240	410	150	1080	100	43	16	250	180	19	51	150	CN(Cc1cn2cc(-c3cnc(N)nc3)nc(N3CCOCC3)c2n1)c1ncc(C(=O)NO)cn1 [Final Compound 3]	580	2040	240	EC50 [19]: 26 nM; IC50 [20]: 400 nM; IC50 [9, 25]: 990 nM; IC50 [21]: 1690 nM; IC50 [22]: 120 nM
